Measurements as given in patent US20260028423A1, “PREDICTION OF AN INCREASE OF DPP3 IN A PATIENT WITH SEPTIC SHOCK” (4TEEN4 Pharmaceuticals GmbH, priority 2022, published 2026).
“Also recorded” adds a separate entry of the source. Where two headings read alike, the source gives them in different places.

Columns and labels:
[1] = system: patients with septic shock; assay: AdrenOSS-2 phase II trial in patients with septic shock and elevated adrenomedullin: mortality vs placebo; type: in vivo, human; settings: for HR 28-day all-cause mortality: vs placebo
Description: AdrenOSS-2 is a double-blind, placebo-controlled, randomized, multicenter, proof of concept and dose-finding phase II clinical trial to investigate the safety, tolerability and efficacy of the N-terminal ADM antibody named Adrecizumab in patients with septic shock and elevated adrenomedullin (Geven et al. BMJ Open 2019; 9:e024475). In total, 301 patients with septic shock and bio-ADM concentration >[…] were randomized (2:1:1) to treatment with a single intravenous infusion over approximately 1 hour with either placebo (n=152), adrecizumab […]/kg (n=72) or adrecizumab […]/kg (n=77). All-cause mortality within 28 (90) days after inclusion was 25.8% (34.8%). Mean age was 68.4 years and 61% were male. For the per protocol analysis, n=294 patients remained eligible, and 14-day all-cause mortality rate was 18.5%.
To validate the findings from example 9 and for proof of concept, the different lower thresholds for DPP3 at baseline (day 1) were assessed for efficacy of the anti-ADM antibody (Adrecizumab) therapy in the septic shock population with high bio-ADM from the AdrenOSS-2 study cohort and patients with a DPP3 plasma value above the different lower thresholds were excluded from the analyses. Efficacy of the anti-ADM antibody therapy was specifically assessed to what concerns the mortality endpoint in the placebo and treated arms.
The DPP3 plasma levels in septic shock with high bio-ADM (above […]) patients (n=298) at baseline and in the following 144 h were statistically analysed with the aim of determining a DPP3 threshold at baseline to assess anti-ADM antibody therapy efficacy. Patients above the respective DPP3 plasma thresholds were excluded from the analyses. Different DPP3 plasma concentration thresholds have been applied for 28-day all-cause mortality evaluation using Kaplan-Meier plots comparing anti-ADM antibody therapy vs. placebo. The log-rank test was chosen for showing differences in mortality rates among treatment groups. Hazard ratios (HR) were calculated for each DPP3 plasma concentration threshold to estimate the reduction in mortality risk imposed by anti-ADM antibody therapy relative to placebo.

[2] = system: patients with septic shock; assay: as above; type: in vivo, human
[3] = system: mice with CLP-induced sepsis; settings: pre-treatment, cited from earlier work
endotoxemic rats = settings: pre-treatment; cited from earlier work
[4] = phase I study; cited from earlier work
[5] = target: T1, Recombinant GST-tagged hDPP3 (Homo sapiens, UniProt Q9NY33); assay: hDPP3 binding assay (labelled antibody, immobilized antigen, RLU); settings: immobilized GST-hDPP3 1 μg/well
T1 construct: purchased USBio (United States Biological, Salem, MA, USA)
T1 sequence (Q9NY33 1-737): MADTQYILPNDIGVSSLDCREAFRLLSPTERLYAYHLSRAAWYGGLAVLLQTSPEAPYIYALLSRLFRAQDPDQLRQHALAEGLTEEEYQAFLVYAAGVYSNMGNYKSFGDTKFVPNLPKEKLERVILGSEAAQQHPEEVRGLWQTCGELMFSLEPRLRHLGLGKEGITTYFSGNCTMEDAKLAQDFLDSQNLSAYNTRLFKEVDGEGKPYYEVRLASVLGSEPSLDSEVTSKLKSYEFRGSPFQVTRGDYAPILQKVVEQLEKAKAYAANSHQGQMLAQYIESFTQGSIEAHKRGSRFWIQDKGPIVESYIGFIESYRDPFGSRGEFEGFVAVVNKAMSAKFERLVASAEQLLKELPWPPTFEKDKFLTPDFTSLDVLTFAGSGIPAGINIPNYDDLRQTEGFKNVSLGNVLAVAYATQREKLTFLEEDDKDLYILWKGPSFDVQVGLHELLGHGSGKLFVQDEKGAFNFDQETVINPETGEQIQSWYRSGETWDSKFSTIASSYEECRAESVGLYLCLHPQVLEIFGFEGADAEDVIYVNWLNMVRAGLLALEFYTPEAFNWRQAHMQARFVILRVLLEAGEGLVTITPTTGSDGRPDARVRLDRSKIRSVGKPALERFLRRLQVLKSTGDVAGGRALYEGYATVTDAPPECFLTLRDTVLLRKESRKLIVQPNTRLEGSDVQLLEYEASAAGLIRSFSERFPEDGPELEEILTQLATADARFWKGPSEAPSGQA
Description: To analyze the capability of DPP3/immunization peptide binding by the different antibodies and antibody clones a binding assay was performed:
Solid phase: Recombinant GST-tagged hDPP3 (SEQ ID NO. 36) or a DPP3 peptide (immunization peptide, SEQ ID NO. 37) was immobilized onto a high binding microtiter plate surface (96-Well polystyrene microplates, Greiner Bio-One international AG, Austria, 1 μg/well in coupling buffer [50 mM Tris, 100 mM NaCl, pH7,8], 1 h at RT). After blocking with 5% bovine serum albumin, the microplates were vacuum dried.
Labelling procedure (tracer): 100 μg (100 μl) of the different antiDPP3 antibodies (detection antibody, 1 mg/ml in PBS, pH 7.4) were mixed with 10 μl acridinium NHS-ester (1 mg/ml in acetonitrile, InVent GmbH, Germany; EP 0 353 971) and incubated for 30 min at room temperature. […] The final concentration was approx. 5-7*10^6 relative light units (RLU) of labelled compound (approx. 20 ng labelled antibody) per 200 μl. acridinium ester chemiluminescence was measured by using a Centro LB 960 luminometer (Berthold Technologies GmbH & Co. KG).
hDPP3 binding assay: the plates were filled with 200 μl of labelled and diluted detection antibody (tracer) and incubated for 2-4 h at 2-8° C. […] Well-bound chemiluminescence was measured by using the Centro LB 960 luminometer (Berthold Technologies GmbH & Co. KG).

[6] = target: T1, Recombinant GST-tagged hDPP3; assay: hDPP3 inhibition analysis (DPP3 activity assay, Arg-Arg-βNA); type: biochemical; settings: 25 ng/ml GST-DPP3, 10 μg antibody
Description: To analyze the capability of DPP3 inhibition by the different antibodies and antibody clones a DPP3 activity assay with known procedure (Jones et al., 1982) was performed. Recombinant GST-tagged hDPP3 was diluted in assay buffer (25 ng/ml GST-DPP3 in 50 mM Tris-HCl, pH7,5 and 100 μM ZnCl2) and 200 μl of this solution incubated with 10 μg of the respective antibody at room temperature. After 1 hour of pre-incubation, fluorogenic substrate Arg-Arg-βNA (20 μl, 2 mM) was added to the solution and the generation of free βNA over time was monitored using the Twinkle LB 970 microplate fluorometer (Berthold Technologies GmbH & Co. KG) at 37° C. Fluorescence of βNA is detected by exciting at 340 nm and measuring emission at 410 nm. Slopes (in RFU/min) of increasing fluorescence of the different samples are calculated. The slope of GST-hDPP3 with buffer control is appointed as 100% activity. The inhibitory ability of a possible capture-binder is defined as the decrease of GST-hDPP3 activity by incubation with said capture-binder in percent.

DPP3 = target: T2, DPP3 (Homo sapiens, UniProt Q9NY33); assay: Western Blot analysis of binding specificity in blood cell lysate; settings: AK1967 as primary antibody
T2 construct: from tissue; host or cells: lysate of blood cells from human EDTA-blood
T2 sequence (Q9NY33 1-737): T1 sequence (Q9NY33 1-737)
Description: Blood cells from human EDTA-blood were washed (3× in PBS), diluted in PBS and lysed by repeated freeze-thaw-cycles. […] Dilutions of blood cell lysate (1:40, 1:80, 1:160 and 1:320) and of purified recombinant human His-DPP3 (31.25-500 ng/ml) were subjected to SDS-PAGE and Western Blot. The blots were incubated in 1.) blocking buffer (1×PBS-T with 5% skim milk powder), 2.) primary antibody solution (AK1967 1:2.000 in blocking buffer) and 3.) HRP labelled secondary antibody (goat anti mouse IgG, 1:1.000 in blocking buffer). Bound secondary antibody was detected using the Amersham ECL Western Blotting Detection Reagent and the Amersham Imager 600 UV (both from GE Healthcare).

[7] = target: T3, native DPP3 from blood cells (Homo sapiens, UniProt Q9NY33); assay: DPP3 inhibition curve (FIG. 7); type: biochemical; settings: against 15 ng/ml DPP3
T3 construct: from tissue; host or cells: blood cells
T3 sequence (Q9NY33 1-737): T1 sequence (Q9NY33 1-737)

Male Wistar rats = assay: CLP model of septic shock, sepsis-induced heart failure rats; type: in vivo, rat; settings: vs CLP+PBS
Description: Male Wistar rats (2-3 months, 300 to 400 g, group size refers to table 9) from the Centre d'élevage Janvier (France) were allocated randomly to one of three groups. All the animals were anesthetized using ketamine hydrochloride (90 mg/kg) and xylazine (9 mg/kg) intraperitoneally (i.p.). For induction of polymicrobial sepsis, cecal ligation and puncture (CLP) was performed using Rittirsch's protocol with minor modification. A ventral midline incision (1.5 cm) was made to allow exteriorization of the cecum. The cecum is then ligated just below the ileocecal valve and punctured once with an 18-gauge needle. The abdominal cavity is then closed in two layers, followed by fluid resuscitation (3 ml/100 g body of weight of saline injected subcutaneously) and returning the animal to its cage. Sham animals were subjected to surgery, without getting their cecum punctured. CLP animals were randomized between placebo and therapeutic antibody.
The study flow is depicted in FIG. 8. After CLP or sham surgery the animals were allowed to rest for 20 hours with free access to water and food. […] As a safety measure, hemodynamics were monitored invasively and continuously from t=0 till 3 h. […]
Grey scale images were recorded at a depth of 2 cm. […] LVFS was calculated as LV end-diastolic diameter−LV end-systolic diameter/LV end-diastolic diameter and expressed in %. […] All parameters were measured manually. […]

[8] = system: isoproterenol-induced heart failure mice; assay: Isoproterenol-induced heart failure in mice; type: in vivo, mouse; settings: 10 mg/kg i.v.; within the first hour after administration
Description: Acute heart failure was induced in male mice at 3 months of age by two daily subcutaneous injections of 300 mg/kg of Isoproterenol, a non-selective β-adrenergic agonist (DL-Isoproterenol hydrochloride, Sigma Chemical Co) (ISO) for two days (Vergaro et al, 2016). The ISO dilution was performed in NaCl 0.9%. Isoproterenol-treated mice were randomly assigned to two groups (Table 10) and PBS or Procizumab (10 mg/kg) were injected intravenously after baseline echocardiography (Gao et al., 2011) and renal resistive index measurements (Lubas et al., 2014, Dewitte et al, 2012) were performed at day 3 (FIGS. 11 A and B). Cardiac function was assessed by echocardiography (Gao et al., 2011) and by the renal resistive index (Lubas et al., 2014, Dewitte et al, 2012) at 1 hour, 6 hours and 24 hours (FIGS. 11 A and B). The group of mice that was injected with vehicle (PBS) instead of isoproterenol was subjected to no further pharmacological treatment and served as the control group (Table 10).

Substance: Adrecizumab: humanized N-terminal anti-ADM antibody; heavy chain SEQ ID NO: 32, light chain SEQ ID NO: 33
- 28-day all-cause mortality compared to the placebo arm ([1]; DPP3 below 30 ng/ml (n=195)): significantly reduced
- 28-day all-cause mortality compared to the placebo arm ([1]; DPP3 below 50 ng/ml): lower than the placebo arm
- 28-day all-cause mortality compared to the placebo arm ([1]; DPP3 below 50 ng/ml at baseline and continuously low (<50 ng/ml) during the next 144 h): significantly lower
- HR 28-day all-cause mortality ([1]; baseline DPP3 threshold 22 ng/ml): 0.258
- HR 28-day all-cause mortality ([1]; baseline DPP3 threshold 30 ng/ml): 0.309
- HR 28-day all-cause mortality ([1]; baseline DPP3 threshold 40 ng/ml): 0.568
- HR 14-day mortality ([2]; DPP3 <50 ng/mL on admission): 0.426
- HR 14-day mortality ([2]; DPP3 <40): 0.385
- HR 14-day mortality ([2]; DPP3 <60): 0.449
- HR 14-day mortality ([2]; DPP3 <70): 0.546
- HR 14-day mortality ([2]; DPP3 >50 ng/mL): 1.69
- HR 14-day mortality ([2]; DPP3 >40): 1.35
- HR 14-day mortality ([2]; DPP3 >60): 1.62
- HR 14-day mortality ([2]; DPP3 >70): 1.24
- HR 28-day all-cause mortality ([2]; baseline DPP3 threshold 50 ng/ml): 0.606
- 7-day survival ([3]; repeated dose administration, control 0%): 40%
- 7-day survival ([3]; single dose, control 10%): 50%
- renal vascular leakage [3]: attenuated
- renal vascular leakage (endotoxemic rats): attenuated
- serious adverse events [4]: no serious adverse events were observed

Substance: Clone 1967: anti-DPP3 monoclonal antibody, clone 1967 of SEQ ID No.: 37 (AK1967; Procizumab); humanized chains SEQ ID No. 47 and 48
- hDPP3 binding [RLU] [5]: 113.736 RLU
- Max. inhibition of hDPP3 [6]: 70%
- binding specificity in lysate of blood cells (DPP3): no other unspecific binding takes place
- IC50 of DPP3 inhibition [7]: about 15 ng/ml
- mortality rate (Male Wistar rats): drastically improves; also recorded: drastically reduces
- shortening fraction (Male Wistar rats): instant normalization; also recorded: drastically improves
- heart function (shortening fraction) [8]: improved; also recorded: restores heart function
